Laboratory results reported in patent publication US11266674B2, “Pharmaceutical composition for tumor treatment or prevention, method, and use thereof” (SICHUAN KELUN-BIOTECH BIOPHARMACEUTICAL CO., LTD., priority 2017, dated 2022).
Values joined by “and” are separate entries in the source; they are usually repeats but may differ in a detail not shown here. Identical values can stand only once.

Legend:
[1] = tested on: human hepatoma Hep3B-luc cells; assay: In vivo efficacy on orthotopic liver xenograft of human hepatoma Hep3B-luc cells in BALB/c nude mice; conditions: compound 1.5 mg/kg, Sorafenib 30 mg/kg, combination 1.5 + 30 mg/kg; for The average bioluminescence value of tumor (photons/sec) Day 0: Day 0, at grouping (baseline); for T/Cfluorescence (%) / T/Ctumor weight (%) / TGIfluorescence (%) / TGItumor weight (%) / The average bioluminescence value of tumor (photons/sec) Day 28 / Tumor weight: Day 28, p.o. every day
Method: This example aimed to evaluate the in vivo efficacy of the pharmaceutical combination of the present invention in a BALB/c nude mouse model with human hepatoma Hep3B-luc cell orthotopic xenografts.
Human hepatoma Hep3B-luc cells were cultured as a monolayer in vitro, and the culture conditions were EMEM culture medium supplemented with 10% Fetal Bovine Serum, and incubation in an incubator at 37° C. and 5% CO2. The cells were subcultured by treatment with routine trypsin-EDTA digestion twice a week. When cell saturation was 80-90%, the number met the requirement, and the cells were harvested and counted.
20 μl of the cell suspension (PBS:Matrigel=1:1) containing about 3×10^6 Hep3B-Luc cells was injected into the left lobe of the liver of BALB/c-nude mice.
(§1) 5 g of sodium carboxymethyl cellulose was weighed and placed in a 1000 mL wide-mouth bottle, 800 mL of ultrapure water was added, and the mixture was stirred to effect a solution, the volume of which was then filled up to 1000 mL, thereby obtaining the vehicle.
(§2) An appropriate amount of the 4′-thionucleoside phosphamide derivative compound in the present invention was weighed, a certain amount of the vehicle was added, and a uniform suspension was obtained after mixing.
(§3) An appropriate amount of Sorafenib was weighed, and dissolved by adding polyoxyethylene castor oil. Ethanol was added and evenly mixed, followed by addition of physiological saline, thereby obtaining a uniform suspension.
After inoculation, the tumor growth was assessed by real-time IVIS fluorescence imaging, and mice bearing a tumor with a bioluminescence value of about 1E+8 photons/sec were selected, and randomized into groups (10 mice per group). The dosing volume was 10 mL/kg (in the group treated with the drug combination, the two drugs were administered individually at an interval of 4 hours), and the administration was performed by oral gavage (p.o.) every day for 4 weeks. The tumor volume and tumor weight were measured and recorded by IVIS bioluminescence.
The anti-tumor effect was evaluated by measuring the bioluminescence value, which reflects the tumor volume. The relative bioluminescence value (RB) was calculated by the measured average bioluminescence value, RB=Bt/B0, wherein B0 is the average bioluminescence value measured at the time of grouping for administration (i.e., Day 0); Bt is the average bioluminescence value measured on Day t. The anti-tumor efficacy was evaluated by tumor growth inhibition TGIfluorescence (%) and T/Cfluorescence (%). The equations for calculation are as follows: T/Cfluorescence(%)=TRB/CRB×100%; TGIfluorescence(%)=100%−T/Cfluorescence(%)
wherein TRB and CRB are respectively the relative fluorescence values (RB) of the treatment group and vehicle group.
The anti-tumor efficacy was evaluated by TGIfluorescence% or T/Cfluorescence%.
The anti-tumor effect was evaluated by tumor weight according to a method same as that described in Example 1.
(3) The Criteria for Determining Synergism were the Same as in Example 1.

[2] = tested on: human hepatoma Hep3B cells; assay: In vivo efficacy on subcutaneous xenograft of human hepatoma Hep3B cells in NU/NU nude mice; conditions: compound 1.5 mg/kg, Sorafenib 30 mg/kg, combination 1.5 + 30 mg/kg; for Tumor volume (mm^3) Day 0: Day 0, at grouping (baseline)
Method: (§4) This example aimed to evaluate the in vivo efficacy and tolerability of the pharmaceutical combination of the present invention in a NU/NU nude mouse model with human hepatoma Hep3B cell subcutaneous xenografts.
Human hepatoma Hep3B cells were cultured as a monolayer in vitro, and the culture conditions were EMEM culture medium supplemented with 10% Fetal Bovine Serum, and incubation in an incubator at 37° C. and 5% CO2. The cells were subcultured by treatment with routine trypsin-EDTA digestion twice a week.
0.2 mL of a cell suspension (PBS:Matrigel=1:1) containing 1×10^6 Hep3B was inoculated subcutaneously into the right flank of each mouse. After the inoculated tumor reached an average size in the range of 100-200 mm^3, the grouping of animals was performed.
as §1, §2, §3
(§5) Mice bearing a tumor having a volume of 100-200 mm^3 were selected, and randomized into groups (8 mice per group). The dosing volume was 10 mL/kg (in the group treated with the drug combination, the two drugs were administered individually at an interval of 4 hours), and the administration was performed by oral gavage (p.o.) every day for 20 days. The tumor volume, body weight of the animals and tumor weight were measured.
(1) The Anti-Tumor Effect was Evaluated by Measuring the Tumor Volume.
The equation for calculating the tumor volume is as follows: V=0.5a×b^2, wherein a and b respectively represent the major and minor diameters of a tumor.
RTV=Vt/V0; wherein V0 is the average tumor volume measured at the time of grouping for administration (i.e., Day 0); and Vt is the average tumor volume measured on Day t.
The anti-tumor efficacy was evaluated by tumor growth inhibition TGIvolume (%) and T/Cvolume (%). T/Cvolume (%)=TRTV/CRTV×100%; TGIvolume (%)=100%−T/Cvolume (%); wherein TRTV and CRTV are respectively RTVs of the treatment group and vehicle group at the end of the test.
TGItumor weight (%) and T/Ctumor weight (%) were calculated based on tumor weight, and were used to evaluate the tumor inhibitory effect. The equation for calculation is as follows: T/Ctumor weight(%)=WTt/WCt×100%; TGItumor weight(%)=100%−T/Ctumor weight(%);
WTt is the average tumor weight in the treatment group at the end of the test; and WCt is the average tumor weight in the vehicle group at the end of the test.
The synergism was evaluated by Jin's equation q=EA+B/(EA+EB−EA×EB), wherein EA+B represents the efficacy achieved by the combination, and EA or EB represents the efficacy achieved by individual administration. In the present invention, the efficacy indicated in the equation refers to TGI %. When q<0.85, the combination administration is considered to achieve an antagonistic effect; when q=0.85-1.15, the combination administration is considered to achieve an additive effect; and when q>1.15, the combination administration is considered to achieve a synergistic effect.

[3] = tested on: mouse colon cancer MC38 cells expressing humanized PD-L1 (hPD-L1-MC38); assay: In vivo efficacy on subcutaneous xenograft of mouse colon cancer hPD-L1-MC38 cells in C57BL/6J mice; conditions: Day 28; compound 1.5 mg/kg p.o. every day, Tecentriq 10 mg/kg i.p. once every 2 days, combination 1.5 + 10 mg/kg
Method: This example aimed to evaluate the in vivo efficacy of the pharmaceutical combination of the present invention in a C57BL/6J mouse model with subcutaneous xenograft of mouse colon cancer hPD-L1-MC38 cells expressing humanized PD-L1.
hPD-L1-MC38 cells were cultured as a monolayer in vitro, and the culture conditions were 1640 culture medium supplemented with 10% Fetal Bovine Serum, and incubation in an incubator at 37° C. and 5% CO2. The cells were subcultured by treatment with routine trypsin-EDTA digestion three times a week.
0.1 mL of a PBS resuspension containing 2×10^5 hPD-L1-MC38 cells was inoculated subcutaneously at the right scapula of each mouse, and the grouping of animals was performed on the day of inoculation.
as §1, §2
An appropriate amount of the hPD-L1 inhibitor (Atezolizumab, trade name: Tecentriq® purchased from Roche Corporation, WHO Pharmaceutical Information (International Nonproprietary Name for Pharmaceutical Substances), Recommended INN: List 74, Vol. 29, No. 3, 2015 (see page 387)) was taken, physiological saline was added to obtain a solution of Tecentriq® at a concentration of 1 mg/mL.
C57BL/6J mice were inoculated with hPD-L1-MC38 cells, randomized into groups (8 mice per group), and treated by administration on the same day of the inoculation. The dosing volume was 10 mL/kg (in the group treated with the drug combination, the two drugs were administered individually at an interval of 4 hours). The 4′-thionucleoside phosphamide derivative compound in the present invention was administered by oral gavage (p.o.) every day for 4 weeks, and Tecentriq was administered intraperitoneally (i.p.) once every 2 days for 4 weeks. The tumor weight was measured.
The anti-tumor effect was evaluated by the measured tumor weight, and the method of measuring tumor weight and its evaluation were the same as those described in Example 1.

[4] = Tolerability by body weight change of Hep3B cell tumor-bearing NU/NU nude mice; type: in vivo, mouse
Method: as §4, §5
(2) The Animal's Tolerance to a Drug was Evaluated by Animal Body Weight Change.
The method for calculating the animal body weight change (%) is as follows: (Wt−W0)/W0×100%; W0: the animal's body weight at the time of grouping for administration (i.e., Day 0); Wt: the animal's body weight on day t of the test.
Body weight change in the animals tested serve as a reference indicator for determining drug tolerance.

Compound | The average bioluminescence value of tumor (photons/sec) Day 0 [1] | T/Cfluorescence (%) [1] | T/Ctumor weight (%) [1] | TGIfluorescence (%) [1] | TGItumor weight (%) [1] | The average bioluminescence value of tumor (photons/sec) Day 28 [1] | Tumor weight [1] | Tumor volume (mm^3) Day 0 [2] | T/Ctumor weight (%) ([2]; Day 20, p.o. every day) | T/Cvolume (%) ([2]; Day 20, p.o. every day) | TGItumor weight (%) ([2]; Day 20, p.o. every day) | TGIvolume (%) ([2]; Day 20, p.o. every day) | Tumor weight ([2]; Day 20, p.o. every day) | T/Ctumor weight (%) [3] | TGItumor weight (%) [3] | Tumor weight [3] | Tumor volume (mm^3) Day 20 ([2]; Day 20, p.o. every day) | weight loss ([4]; Day 20, Sorafenib 30 mg/kg p.o. every day, printed as loss) | Body weight change (%) ([4]; Day 20, p.o. every day, compound 1.5 mg/kg, Sorafenib 30 mg/kg, combination 1.5 + 30 mg/kg, error range ±0.2%)
CC(C)OC(=O)C(C)NP(=O)(OCC1SC(n2ccc(N)nc2=O)C(F)C1O)Oc1ccccc1 (centres unmarked) | 1.09E+8 photons/sec | 103.43% | 77.93% | −3.43% | 22.07% | 2.41E+10 photons/sec | 3.46 g and 3.46 ± 1.17 g | 137.67 ± 7.75 mm^3 | 61.02% | 65.25% | 38.98% | 34.75% | 1.19 g and 1.19 ± 0.25 g | 95.16% | 4.84% | 3.54 g and 3.54 ± 0.41 g |  |  | 
CNC(=O)c1cc(Oc2ccc(NC(=O)Nc3ccc(Cl)c(C(F)(F)F)c3)cc2)ccn1 [Sorafenib] | 1.09E+8 photons/sec | 64.81% | 31.53% | 35.19% | 68.47% | 1.51E+10 photons/sec | 1.40 g and 1.40 ± 0.82 g | 137.77 ± 7.92 mm^3 | 38.97% | 42.86% | 61.03% | 57.14% | 0.76 g and 0.76 ± 0.17 g |  |  |  | 912.68 mm^3 and 912.68 ± 173.12 mm^3 | 8.31% | −8.31%
Atezolizumab [Tecentriq] |  |  |  |  |  |  |  |  |  |  |  |  |  | 73.12% | 26.88% | 2.72 g and 2.72 ± 0.44 g |  |  | 
